From US10717704B2, “Inhibitors of creatine transport and uses thereof” (Rgenix, Inc., priority 2014, dated 2020)

Key:
[1] = test system: LvM3b cells with CKB knockdown; assay: Liver metastasis of CKB knockdown LvM3b cells pre-treated with metabolite; type: in vivo, mice
Protocol: (§1) 5×10^5 highly metastatic cancer cells were injected into the portal circulation of immunodeficient mice. One day after inoculation of cancer cells, mice were injected indicated amounts of drug in 300 μL PBS. Treatment was continued daily and metastatic progression was monitored by bioluminescent imaging until the mice were euthanized at which point livers were excised for bioluminescent imaging and gross histology. Where indicated, cancer cells were pre-treated with indicated amounts of compound for 48 hrs before injection into immunodeficient mice.
CKB is known to regulate the reservoir of rapidly mobilized high-energy phosphates in tissues such as the brain and kidneys by catalyzing the transfer of a high-energy phosphate group from phosphocreatine to ADP, yielding ATP and creatine. It was hypothesized that CKB generation of ATP from phosphocreatine might provide colon cancer cells with an energetic advantage during hepatic colonization. […] Metastatic burden was monitored by bioluminescent imaging and mice euthanized 21 days after injection.
Similar studies were done to determine whether creatine and phosphocreatine could rescue the phenotype of seen upon CKB knock-down. […] Liver metastasis was monitored by bioluminescent imaging and mice were euthanized as described above.

LvM3b cells = assay: Liver metastasis assay, LvM3b colon cancer cells, drug treatment of mice; type: in vivo, NOD-SCID mice; conditions: for metastatic colonization (bioluminescent measurements of liver metastasis): 5×10^5 LvM3b cells, treated daily for two weeks, intra-peritoneal
Protocol: One day after inoculation of cancer cells, mice were injected indicated amounts of drug in 300 μL PBS. Treatment was continued daily and metastatic progression was monitored by bioluminescent imaging until the mice were euthanized at which point livers were excised for bioluminescent imaging and gross histology. Where indicated, cancer cells were pre-treated with indicated amounts of compound for 48 hrs before injection into immunodeficient mice. […] The treatment regime started one day after inoculation of tumor cells and continued until the mice were euthanized. […] Treatment regime were as that for cyclocreatine treatment. Finally, assays were carried out to determine the impact of small-molecule inhibition of CKB and restriction of creatine availability on colon cancer metastasis. Cyclocreatine, which resembles phosphocreatine, is a transition-state analog for creatine kinases. […] The mice were then euthanized and livers excised for ex vivo imaging at the end of the treatment. […] Similar assays were carried out using a creatine transporter inhibitor beta-guanidinopropionic acid (β-GPA). […] In this example, assays were carried out to confirm the therapeutic potential of targeting the creatine transporter channel SLC6a8 by administering the small molecule β-GPA, which is an inhibitor of SLC6a8. […] To confirm this therapeutic effect, mice injected with LvM3b colon cancer cells we treated with either β-GPA or control vehicle (PBS) via intra-peritoneal injection daily for three weeks (FIG. 2). The mice were euthanized at three weeks and liver extracted for bioluminescent imaging and gross histology.

CKB = CKB (Homo sapiens, UniProt P12277); conditions: read-out: ki (inhibitor of CKB); cited from earlier work
Chain of CKB (P12277 whole entry): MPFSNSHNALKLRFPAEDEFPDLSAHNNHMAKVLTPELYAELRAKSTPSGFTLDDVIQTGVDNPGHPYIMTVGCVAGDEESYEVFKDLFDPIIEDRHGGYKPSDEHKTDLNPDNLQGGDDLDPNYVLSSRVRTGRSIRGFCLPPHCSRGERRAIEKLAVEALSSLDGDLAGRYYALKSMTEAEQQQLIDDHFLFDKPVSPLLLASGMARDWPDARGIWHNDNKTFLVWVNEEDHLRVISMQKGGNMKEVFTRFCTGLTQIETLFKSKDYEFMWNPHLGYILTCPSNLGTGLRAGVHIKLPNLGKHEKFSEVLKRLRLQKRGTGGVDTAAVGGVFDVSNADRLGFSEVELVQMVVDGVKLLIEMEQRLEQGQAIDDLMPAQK

creatine transporter = target: T1, creatine transporter (Mus musculus, UniProt Q8VBW1); assay: In vivo creatine transporter inhibition assay (creatine-d3 transport in heart tissue); set-up: species or system C57Bl6 male mice; conditions: i.p. 250 mg/kg β-GPA equivalent (1.91 mmol/kg), creatine-d3 1 mg/kg i.p. 7 minutes after drug, hearts after one hour, relative to vehicle control, mean of three hearts
T1 construct: from tissue; host or cells: heart of C57Bl6 male mice (in vivo dosing)
T1 sequence (Q8VBW1 1-635): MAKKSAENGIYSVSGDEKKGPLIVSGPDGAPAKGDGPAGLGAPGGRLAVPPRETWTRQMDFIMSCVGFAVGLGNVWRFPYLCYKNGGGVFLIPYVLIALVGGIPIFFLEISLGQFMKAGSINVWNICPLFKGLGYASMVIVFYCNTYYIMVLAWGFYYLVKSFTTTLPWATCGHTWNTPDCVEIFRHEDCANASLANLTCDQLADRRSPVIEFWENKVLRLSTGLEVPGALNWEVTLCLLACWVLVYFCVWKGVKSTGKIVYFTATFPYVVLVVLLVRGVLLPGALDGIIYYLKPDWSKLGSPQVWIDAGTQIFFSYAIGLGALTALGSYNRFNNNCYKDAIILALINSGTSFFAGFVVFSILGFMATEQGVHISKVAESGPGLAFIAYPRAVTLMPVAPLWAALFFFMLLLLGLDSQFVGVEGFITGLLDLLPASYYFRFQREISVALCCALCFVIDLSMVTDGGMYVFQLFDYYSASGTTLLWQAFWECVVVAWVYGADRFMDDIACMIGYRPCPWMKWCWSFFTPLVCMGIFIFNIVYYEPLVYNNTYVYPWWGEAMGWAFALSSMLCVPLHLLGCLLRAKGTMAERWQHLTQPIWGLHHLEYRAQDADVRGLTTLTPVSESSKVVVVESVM
Protocol: Soluble compounds were formulated in saline solution (0.9% NaCl). […] Studies were performed on 6-7 week old C57Bl6 male mice, receiving a regular diet (Purina 5001, Research Diet) and on a regular sleep rhythm (12 h night/day schedule). Experiments were performed ˜6 h after exposing to daylight. Mice were weighed and randomly divided into groups of 3 mice per group and injected i.p. with 100-200 μL of dosing solution to deliver 250 mg/kg (50 mg/mL or 381 mM) β-GPA equivalent (i.e. 1.91 mmol/kg) along with a vehicle control. […] Volumes were adjusted based on the weight of the mice to reach a final dose of 1 mg/kg. After one hour, mice were euthanized, hearts were perfused with PBS, removed, snap-frozen in liquid nitrogen, and stored at −80° C. until further processing. Mouse hearts were thawed and weighed into 1.5 mL Eppendorf conical tubes. Typical heart weights range from […]. […] The samples were then placed in a MiniBeadBeater (BioSpec Products, Inc.) for 2 minutes to disrupt the tissue and homogenize the sample. Aliqouts (20 μL) of the homogenized hearts were transferred to a 96-well microtiter plate. […] Supernatant (900 μL) was transferred to 96-well deep well plate for analysis. Calibration standards, blanks, and quality control samples are prepared from control mouse hearts homogenized as noted above. Aliquots of homogenate were then spiked with known quantities of creatine-d3 (CDN Isotopes, Pointe-Claire, Quebec) or solvent, and processed along with the samples as noted above. Analysis was conducted by LC-MS/MS using an Acquity UPLC (Waters Corp., Milford, Mass.)/Triple Quad 5500 (AB Sciex, Framingham, Mass.) system. […] A binary gradient of acetonitrile and 10 mM ammonium acetate was used to elute analytes from the column. The mass spectrometer was operated in positive ion electrospray in Multiple Reaction Monitoring mode for the following mass transitions: Data were collected and processed using Analyst 1.6.2 (AB Sciex, Framingham, Mass.). […] Data was report as μg of creatine-d3 per gram of heart. Mean values and standard deviations were calculated from three heart samples and percent creatine-d3 transport inhibition was reported relative to vehicle control.

[2] = test system: PANC1 pancreatic cancer cells; assay: Survival of disseminated PANC1 cells in vivo after β-GPA pre-treatment; set-up: species or system immunodeficient mice
Protocol: as §1, with “One” for “5×10^5 highly metastatic cancer cells were injected into the portal circulation of immunodeficient mice. One”

CN(CC(=O)O)C(=N)N [creatine]
rescue of metastasis suppression upon CKB knockdown ([1]; LvM3b cells with CKB knockdown pre-treated with 10 uM, day 21): rescued metastasis suppression

NC1=NCCN1CC(=O)O [cyclocreatine]
metastatic colonization (bioluminescent measurements of liver metastasis) (LvM3b cells): significantly reduced metastatic colonization | Ki (CKB): 5 mM

C[C@@H](CC(=O)O)NC(=N)N [Compound 220, (3S)-3-carbamimidamidobutanoic acid]
% Inhibition of Creatine-d3 Transport (creatine transporter): 1.4%

Nc1ncnc2c1ncn2[C@@H]1O[C@H](COP(=O)(O)OP(=O)(O)OP(=O)(O)O)[C@@H](O)[C@H]1O [ATP]
enhancement of suppressed metastasis phenotype in cells depleted of CKB ([1]; LvM3b with CKB knockdown pre-treated with 100 uM ATP, 21 days): more than 10 folds

N=C(N)N1CCC(C(=O)O)C1 (centres unmarked) [Compound 376, 1-carbamimidoylpyrrolidine-3-carboxylic acid]
% Inhibition of Creatine-d3 Transport (creatine transporter): 39.1%

N=C(N)NC(CC(=O)O)C(F)(F)F (centres unmarked) [Compound 261, 3-guanidino-4,4,4-trifluorobutanoic acid]
% Inhibition of Creatine-d3 Transport (creatine transporter): 24.7%

N=C(N)N1CC(C(=O)O)C1 [Compound 258, 1-carbamimidoylazetidine-3-carboxylic acid]
% Inhibition of Creatine-d3 Transport (creatine transporter): 71.8%

CCC(CC(=O)O)NC(=N)N (centres unmarked) [Compound 358, 3-carbamimidamidopentanoic acid]
% Inhibition of Creatine-d3 Transport (creatine transporter): 11.1%

C[C@H](CC(=O)O)NC(=N)N [Compound 219, (3R)-3-carbamimidamidobutanoic acid]
% Inhibition of Creatine-d3 Transport (creatine transporter): 79.0%

N=C(N)NCCC(=O)O [28 (β-GPA)]
inhibition at 250 mg/kg (creatine transporter; mouse, ip): 73.4%

N=C(N)NCCC(=O)O [β-GPA, beta-guanidinopropionic acid]
metastatic colonization (bioluminescent measurements of liver metastasis) (LvM3b cells): significantly reduced metastatic colonization | colon cancer metastasis to the liver (LvM3b cells; LvM3b cells, daily treatment for three weeks, bioluminescent imaging and gross anatomical examination): significant reduction in colon cancer metastasis to the liver | average photon flux ratio (bioluminescence imaging) (LvM3b cells; LvM3b cells, β-GPA intra-peritoneal daily for three weeks, control group about 800): ~100 | average photon flux ratio (bioluminescence imaging) ([2]; 5×10^5 PANC1 cells pre-treated 48 hours with 10 mM, day 1 signal normalized to day zero, control group about 2.7): ~1.6 | tumor burden of pancreatic cancer cells in vivo ([2]; PANC1 cells pre-treated 48 hours with 10 mM, one day after injection): significant reduction in the tumor burden

N=C(N)NC[C@H](N)C(=O)O [Compound 125, (2S)-2-amino-3-carbamimidamidopropanoic acid]
% Inhibition of Creatine-d3 Transport (creatine transporter): 4.5%
